Reference: paper PMC11083769, “Characterization and pharmacokinetics of cinnamon and star anise compound essential oil pellets prepared via centrifugal granulation technology” (BMC Veterinary Research, 2024)
Converted amounts (≈) assume the structure as drawn. Marks after values point to notes of the source that are not given here.

How the values were obtained:
[1] = test system: Staphylococcus aureus Newman strain; design: method as in PMID 32185411; details: cited from earlier work
[2] = Pharmacokinetics of compound essential oil pellets in pig model; format: in vivo; details: single dose, n = 6
Source text: Six healthy Landrace × Large White hybrid pigs were randomly divided into three groups for pharmacokinetic experiments and were purchased from JuCong Agriculture, Nanning, Guangxi. During the adaptation period, the temperature of the breeding environment was 18–25℃, the relative humidity was 50–65%, and commercial feed and water free of antibiotics and target drugs were freely available to the pigs housed individually in six pig pens. After the experiment, the pigs were released.
After one week in the experimental setting, the pigs were labelled with numbers 1–6, randomly divided into 3 groups, and weighed before the experiment. […] Compound essential oil pellets were orally administered at three different doses of 50, 100 and 200 mg/kg. Three cycles of crossover trials were performed with 6 pigs, with each cycle separated by 7 days. 5 mL of blood was collected from the anterior vena cava at different time points after administration, centrifuged at 3000 r/min for 10 min, after which the plasma was separated. The drug concentration in the plasma was detected by GC‒MS/MS after pretreatment.
The average drug-time curve of each group was drawn. WinNonlin version 5.2.1 was used to calculate the pharmacokinetic parameters.
The compound essential oil pellet concentration was measured using GC‒MS/MS. The chromatographic conditions were as follows. A PEG-20 M column (30 m × 0.32 mm, 0.25 μm) was used. The temperature was increased from 90 ℃ to 160 ℃ at a heating rate of 10 ℃/min, held for 5 min, further increased from 160 ℃ to 280 ℃ at a heating rate of 20 ℃/min and held for 2 min.

[3] = oral compound essential oil pellets 50 mg/kg
[4] = oral compound essential oil pellets 100 mg/kg
[5] = oral compound essential oil pellets 200 mg/kg

SMILES: C/C=C/c1ccc(OC)cc1 [trans-anethole, Trans-anethole]
- MIC [1]: 49.4 mg/mL (≈ 333 mM)

SMILES: O=C/C=C/c1ccccc1 [cinnamaldehyde, Cinnamaldehyde]
- AUC0−∞ of plasma cinnamaldehyde [2, 3]: 1433.11 ± 21.30^a h·µg/L
- CL of plasma cinnamaldehyde [2, 3]: 18.69 ± 1.81^ac L/h/kg
- Cmax of plasma cinnamaldehyde [2, 3]: 58.81 ± 6.16^a µg/L
- MRT0−∞ of plasma cinnamaldehyde [2, 3]: 20.96 ± 0.21^a h
- T1/2 of plasma cinnamaldehyde [2, 3]: 14.52 ± 0.14^a h
- Tmax of plasma cinnamaldehyde [2, 3]: 2.00 h
- Vz of plasma cinnamaldehyde [2, 3]: 1205.24 ± 149.37^ab L/kg
- AUC0−∞ of plasma cinnamaldehyde [2, 4]: 467.05 ± 141.28^d h·µg/L
- CL of plasma cinnamaldehyde [2, 4]: 142.48 ± 40.58^d L/h/kg
- Cmax of plasma cinnamaldehyde [2, 4]: 37.57 ± 5.56^d µg/L
- MRT0−∞ of plasma cinnamaldehyde [2, 4]: 17.62 ± 1.84^d h
- T1/2 of plasma cinnamaldehyde [2, 4]: 12.21 ± 1.27^d h
- Tmax of plasma cinnamaldehyde [2, 4]: 2.00 h
- Vz of plasma cinnamaldehyde [2, 4]: 7671.46 ± 1809.86^d L/kg
- AUC0−∞ of plasma cinnamaldehyde [2, 5]: 1653.25 ± 295.40 µg·h/L
- CL of plasma cinnamaldehyde [2, 5]: 56.85 ± 15.32 L/h/kg
- Cmax of plasma cinnamaldehyde [2, 5]: 64.18 ± 2.33 µg/L
- MRT0−∞ of plasma cinnamaldehyde [2, 5]: 20.68 ± 0.61 h
- T1/2 of plasma cinnamaldehyde [2, 5]: 14.33 ± 0.42 h
- Tmax of plasma cinnamaldehyde [2, 5]: 2.00 h
- Vz of plasma cinnamaldehyde [2, 5]: 4593.67 ± 625.29 L/kg
